The values that follow come from paper PMC2784146 (Nature, 2009).

One data set relates to carbonic anhydrase II. The settings on record: ref WOMBAT (26); cited from earlier work.
Another data set deals with human 5-HT2A receptor (Homo sapiens, UniProt P28223). Description: cell-based.
The target in the next data set is σ1 receptor. Particulars: read-out: Kd for σ1; cited from earlier work.
Another data set concerns hERG channel. The settings on record: cited from earlier work.
In the next data set the target is 5-HT1D receptor (Homo sapiens, UniProt P28221). Particulars: ref Supplementary Table 3; cited from earlier work.
A further data set deals with Histamine H4 receptor (Homo sapiens, UniProt Q9H3N8). Description: biochemical. Format: binding.
The conditions of data set [1]: average; cited from earlier work.
The subject of a further data set is adrenergic α2. Particulars: ref Supplementary Table 3; cited from earlier work.
Another data set deals with μ Opioid receptor (Homo sapiens, UniProt P35372). Briefly: biochemical. Format: binding.
The target of another data set is T1, α2A adrenergic receptor (Homo sapiens, UniProt P08913).
T1 sequence (P08913 1-465): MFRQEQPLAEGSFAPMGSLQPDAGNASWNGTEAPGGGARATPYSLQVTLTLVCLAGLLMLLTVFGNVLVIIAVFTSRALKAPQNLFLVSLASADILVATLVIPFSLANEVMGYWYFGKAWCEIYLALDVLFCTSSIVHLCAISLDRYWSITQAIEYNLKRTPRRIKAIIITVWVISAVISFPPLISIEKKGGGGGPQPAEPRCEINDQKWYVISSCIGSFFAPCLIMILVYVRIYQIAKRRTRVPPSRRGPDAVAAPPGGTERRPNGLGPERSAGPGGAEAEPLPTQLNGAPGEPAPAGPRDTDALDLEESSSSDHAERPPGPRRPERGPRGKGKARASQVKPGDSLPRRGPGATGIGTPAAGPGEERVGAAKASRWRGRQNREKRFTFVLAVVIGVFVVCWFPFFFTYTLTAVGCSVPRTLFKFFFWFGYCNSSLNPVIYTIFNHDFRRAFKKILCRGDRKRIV
Description: Radioligand competition binding, α2A. (In a radioligand displacement assay an active substance lowers the binding of a labelled ligand.)

5-HT1D receptor, sequence (P28221 whole entry): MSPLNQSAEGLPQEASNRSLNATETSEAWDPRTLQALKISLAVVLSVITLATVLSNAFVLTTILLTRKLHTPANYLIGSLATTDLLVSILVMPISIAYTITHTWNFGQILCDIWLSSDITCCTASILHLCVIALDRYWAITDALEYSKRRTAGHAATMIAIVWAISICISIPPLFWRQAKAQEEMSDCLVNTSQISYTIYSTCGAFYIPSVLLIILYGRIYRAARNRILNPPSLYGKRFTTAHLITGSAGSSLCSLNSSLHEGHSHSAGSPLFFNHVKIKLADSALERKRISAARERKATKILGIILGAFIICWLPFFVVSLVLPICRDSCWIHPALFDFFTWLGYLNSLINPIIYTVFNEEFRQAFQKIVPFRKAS
Histamine H4 receptor, sequence (Q9H3N8 whole entry, species assumed): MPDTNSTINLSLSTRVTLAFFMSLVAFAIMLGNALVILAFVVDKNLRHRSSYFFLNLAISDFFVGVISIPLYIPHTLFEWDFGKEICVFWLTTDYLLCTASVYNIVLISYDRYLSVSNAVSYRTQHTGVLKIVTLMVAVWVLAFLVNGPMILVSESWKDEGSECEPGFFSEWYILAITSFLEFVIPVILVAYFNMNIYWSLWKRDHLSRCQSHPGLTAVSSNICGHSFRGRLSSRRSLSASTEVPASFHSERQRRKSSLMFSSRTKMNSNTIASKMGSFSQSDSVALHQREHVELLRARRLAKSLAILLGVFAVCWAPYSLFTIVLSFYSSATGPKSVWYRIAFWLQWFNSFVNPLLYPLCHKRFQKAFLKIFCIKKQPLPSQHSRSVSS
μ Opioid receptor, sequence (P35372 whole entry, species assumed): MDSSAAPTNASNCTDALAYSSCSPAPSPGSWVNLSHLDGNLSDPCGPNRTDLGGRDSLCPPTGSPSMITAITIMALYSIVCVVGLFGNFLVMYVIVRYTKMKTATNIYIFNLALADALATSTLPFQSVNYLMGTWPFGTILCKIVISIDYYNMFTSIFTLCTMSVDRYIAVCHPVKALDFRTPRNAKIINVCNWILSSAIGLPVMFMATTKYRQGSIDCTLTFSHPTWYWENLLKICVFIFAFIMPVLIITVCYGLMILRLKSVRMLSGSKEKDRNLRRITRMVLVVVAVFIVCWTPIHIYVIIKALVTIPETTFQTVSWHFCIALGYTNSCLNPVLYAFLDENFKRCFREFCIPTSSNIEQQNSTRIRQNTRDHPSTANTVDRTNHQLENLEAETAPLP
human 5-HT2A receptor, sequence (P28223 whole entry): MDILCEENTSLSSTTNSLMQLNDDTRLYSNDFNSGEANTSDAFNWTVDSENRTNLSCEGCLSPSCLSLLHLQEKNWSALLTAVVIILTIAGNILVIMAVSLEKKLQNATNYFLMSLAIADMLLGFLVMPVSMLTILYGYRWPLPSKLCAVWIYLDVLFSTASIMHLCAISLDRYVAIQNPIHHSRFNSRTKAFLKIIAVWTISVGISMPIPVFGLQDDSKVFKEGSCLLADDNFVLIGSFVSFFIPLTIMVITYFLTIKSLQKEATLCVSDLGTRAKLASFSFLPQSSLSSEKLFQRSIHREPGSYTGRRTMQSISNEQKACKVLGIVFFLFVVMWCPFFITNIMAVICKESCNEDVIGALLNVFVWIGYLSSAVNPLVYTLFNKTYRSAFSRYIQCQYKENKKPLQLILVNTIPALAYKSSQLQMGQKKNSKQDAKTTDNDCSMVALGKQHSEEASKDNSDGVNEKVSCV

For `CCN[C@H]1CN(CCCOC)S(=O)(=O)c2sc(S(N)(=O)=O)cc21` [Azopt, brinzolamide], the “binds carbonic anhydrase II at” value in the data set with carbonic anhydrase II is on record as 3 nM.

As usually defined, the EC50 is the concentration at which the effect is half-maximal. As a reminder, the Kd is the constant that tells how readily two partners part at equilibrium. Turning to `CN(C)CCc1c[nH]c2ccccc12` [DMT, N,N-dimethyltryptamine], at human 5-HT2A receptor, the EC50 was found to be 0.118 ± 0.029 µM. In addition, at σ1 receptor, the dissociation constant (Kd) was 14.8 µM.

As a reminder, the IC50 is the concentration at which inhibition is half-maximal. As for `O=c1[nH]c2ccccc2n1CCCN1CCC(n2c(=O)[nH]c3cc(Cl)ccc32)CC1` [Motilium], the IC50 with hERG channel was 5 µM.

Regarding `CCCN1C[C@H](CSC)C[C@@H]2c3cccc4[nH]cc(c34)C[C@H]21` [Permax, pergolide], the “reported to bind the 5-HT1D receptor at” value at 5-HT1D receptor is 13 nM.

As usually defined, the Ki is the equilibrium dissociation constant of an inhibitor or competing ligand from its target. Read a high Ki as lower affinity. In turn, `CC(C)Nc1cccnc1N1CCN(C(=O)c2cc3cc(NS(C)(=O)=O)ccc3[nH]2)CC1` [Rescriptor, Delavirdine] displayed an inhibition constant Ki at Histamine H4 receptor of 5.3 µM. Further, the “steady-state plasma concentration Cmin” value in data set [1] was 15 µM.

With `CCN(CC)C(=O)N[C@H]1C=C2c3cccc4[nH]cc(c34)C[C@H]2N(C)C1` [Revanil, lisuride], the “reported to bind adrenergic α2 at” value in the data set with adrenergic α2 was 0.055 nM.

`CC(C(O)c1ccc(O)cc1)N1CCC(Cc2ccccc2)CC1` (stereo not shown) [Vadilex, Ifenprodil] came in with a Ki at μ Opioid receptor of 1.4 µM.

Turning to `COc1cc2c(cc1OC)C1CC(=O)C(CC(C)C)CN1CC2` (stereo not shown) [Xenazine], the inhibition constant Ki at α2A adrenergic receptor was 0.96 µM.
